The values below come from patent US12447171B2 (CELGENE QUANTICEL RESEARCH, INC., priority 2019, dated 2025).

Peptide text beside a SMILES is read from it. * marks the point of attachment. Cbz = O=C(OCc1ccccc1)*; CH2F = FC*

For one data set, the system named is MCL-1. The data set can be described thus: Western blot of MCL-1 in AML cell lines. It counts as cell-based. Particulars: MV4-11; 20 μM Z-VAD-FMK for 1 hour before 5-azacytidine for another 16 hours. As to the method: Lysates were quantified using a bicinchoninic acid (BCA) kit (Piece/Thermo Fisher, Waltham, MA). 20 to 30 μg protein was resolved on a 4-12% SDS-PAGE gel, transferred to PVDF membranes (80V/90 minute by wet-transfer), and blocked with Oddysey TBS blocking buffer for 1 hour and then probed with appropriate primary antibodies overnight at 4° C. using dilution as recommended by manufacturer. Membranes were washed three times for a total of 30 minutes and then incubated with secondary antibodies at room temperature in the dark for 1 hour. After another three washes, Odyssey infrared imaging system and companion software (LI-COR biosciences, Lincoln, NE, USA) were used to scan immunoblot membranes and to quantify band intensity according to the manufacturer's instructions. The ratio of proteins of interest to loading control in treated samples was normalized to the corresponding ratio in untreated cells. Antibodies used for immunoblotting were purchased from the following sources: BCL-2 (sc-7382), MCL1- (sc-819) from Santa Cruz Biotechnology (Dallas, TX, USA, Bim (2819), caspase-3 (9664) from Cell Signaling Technology; beta-Actin (A2228) from Sigma-Aldrich; DNMTI (ab188453) from AbCam; TRDye 680 goat anti-rabbit and IRDye 800 goat anti-mouse secondary antibodies (#925-68073 and #925-32212) were purchased from Li-COR Biosciences (Lincoln, NE).

For another data set, the system named is BaF-FLT3(WT). Kind of data set: Cell viability assay (Cell Titer-Glo), BaF3 cells expressing FLT3. In kind it is cell-based. Particulars: Mus musculus. In general terms: In ATP-based viability assays light output follows the ATP content of the culture.
Another data set relates to BaF-FLT3(D835Y). The description is as above. In kind it is cell-based. Particulars: Mus musculus.
In another data set the test system is MOLM-13 xenograft model. Kind of data set: Disseminated MOLM-13 xenograft survival study. In kind it is in vivo, mice. Particulars: MOLM-13, NOD/SCID mice; single agent PO qd×21: midostaurin 100 mg/kg, gilteritinib 4 mg/kg, venetoclax 100 mg/kg; vehicle=19 days. As to the method: (§1) LEED models oral administration of AZA, while HELD models intravenous or subcutaneous administration of AZA.
The animals were fed ad libitum water (reverse osmosis, 1 ppm Cl), and NIH 31 Modified and Irradiated Lab Diet® consisting of 18.0% crude protein, 5.0% crude fat, and 5.0% crude fiber. The mice were housed on irradiated Enrich-o'cobs™ Laboratory Animal Bedding in static microisolators on a 12-hour light cycle at 20-22° C. (68-72° F.) and 40-60% humidity.
(§2) On each day of dosing, an appropriate amount of gilteritinib was dissolved in 0.5% methylcellulose in DI water to yield a dosing solution at 0.4 mg/mL. Each week, an appropriate amount of venetoclax was dissolved in 10% ethanol:30% PEG400:60% phosal 50 propylene glycol to yield a dosing solution at 10 mg/mL. […] Each test mouse received 5×10^6 MOLM-13 cells or 10^7 MV4-11 cells (0.2 mL cell suspension) by tail vein injection. Dosing was initiated three days after tumor cell inoculation, which was designated as Day 1 of the study. NOD/SCID mice (n=9-12/group) were randomized according to body weight and dosed. […] Vehicle was administered both IP and PO. The dosing volume for all treatments was 10 mL/kg, scaled to the weight of each individual animal.
(§3) Animals were monitored individually for an endpoint of moribundity due to progression of the leukemia. Full hind limb paralysis, severe ocular proptosis, or moribundity was considered sufficient for euthanasia due to tumor progression. Moribund animals were defined as sick animals unable to reach food and water. These deaths were classified as death on survival study. The time to endpoint (TTE), in days, was recorded for each mouse that died of its disease or was euthanized due to extensive tumor progression. […] An animal classified as having died from treatment-related (TR) causes was assigned a TTE value equal to the day of death. An animal classified as having died from non-treatment-related (NTR) causes, or used for sampling before endpoint, was excluded from TTE calculations and all further analyses. The median TTE value was calculated for each group. The median TTE of treated mice was expressed as a percentage of the median TTE of the control mice (% T/C), and the increase in life span (ILS) was calculated as: ILS=% T/C−100%, where T=median TTE treated, and C=median TTE control. Thus, if T=C, ILS=0%.
Animals were weighed daily on Days 1-5, then twice per week until the completion of the study. […] Individual body weight loss was monitored as per protocol and any animal that exceeded the limits for acceptable body weight loss was euthanized. Group mean body weight loss also was monitored as per protocol. Dosing was suspended in any group that exceeded the limits for acceptable mean body weight loss. If mean body weight recovered, then dosing may be resumed in that group, but at a lower dosage or less frequent dosing schedule. Acceptable toxicity for the maximum tolerated dose was defined as a group mean body-weight loss of less than 20% during the study and not more than one TR death among ten treated animals. […] A death was classified as NTR if there was no evidence that death was related to treatment side effects or tumor progression. Non-treatment-related deaths may be further characterized based on cause of death. A death may be classified as NTRa if it resulted from an accident or human error. A death may be classified as NTRu if the cause of death is unknown and there is no available evidence of death related to treatment side effects, metastasis, accident or human error, although death due to these etiologies cannot be excluded. Survival was analyzed by the Kaplan-Meier method, based on TTE values. The logrank (Mantel-Cox) and Gehan-Breslow-Wilcoxon tests determined the significance of the difference between the overall survival experiences (survival curves) of two groups, based on TTE values.
These experiments were repeated with a second FLT3-ITD cell line, MOLM-13.

Another data set concerns BaF-FLT3-ITD. The data set can be described thus: Cell viability assay (Cell Titer-Glo), BaF3 cells expressing FLT3. In kind it is cell-based. Particulars: Mus musculus.
The test system of data set [1] is engineered BaF3 cell lines expressing either wild-type FLT3, FLT3-ITD or FLT3 (D835Y). The data set can be described thus: Cell viability and synergy, panel of engineered BaF3 cell lines. It counts as cell-based. Particulars: Mus musculus, FIG. 10A, read-out: EC50 (resistant to venetoclax).
The next data set concerns MV4-11 xenograft models. The data set can be described thus: Disseminated MV4-11 xenograft survival study. It counts as in vivo. Particulars: MV4-11, NCG mice; single agent PO qd×21: venetoclax 100 mg/kg, midostaurin 100 mg/kg; vehicle=29.5. The method, then: as §1
as §2, with “NOD/SCID mice (n=9-12/group) were randomized according to body weight and dosed.” left out
as §3
Animals were weighed daily on Days 1-5, then twice per week until the completion of the study. […] Individual body weight loss was monitored as per protocol and any animal that exceeded the limits for acceptable body weight loss was euthanized. Group mean body weight loss also was monitored as per protocol. Dosing was suspended in any group that exceeded the limits for acceptable mean body weight loss. If mean body weight recovered, then dosing may be resumed in that group, but at a lower dosage or less frequent dosing schedule. […] Survival was analyzed by the Kaplan-Meier method, based on TTE values. The logrank (Mantel-Cox) and Gehan-Breslow-Wilcoxon tests determined the significance of the difference between the overall survival experiences (survival curves) of two groups, based on TTE values.

The test system of the next data set is 22 AML cell lines. The data set can be described thus: Cell viability assay, single agents and 5-azacytidine-venetoclax combination, AML cell line panel. Particulars: number of 22 AML cell lines.
Data set [2] deals with CD11b, CD14, and CD86 surface marker expression. Kind of data set: Flow cytometry of differentiation markers in AML cell lines. It counts as cell-based. As to the method:
FACS samples were acquired using BD FACSCanto II. Cell viability was also examined by FACS analysis with Fixable Viability dye 780 (Thermofisher Scientific, Waltham, MA) according to the manufacturer's instructions. Briefly, 10^5 cells were seeded in U bottom 96 well plate, next day treated with 9 doses of CC-90011 (started from 10 uM, 3-fold dilution down), cells were incubated at 37° C. for 6 days and harvested for staining. Cells were washed once with DPBS and stained with 1×FVS780 and washed twice with staining buffer. The samples were stained with 1:200 dilution surface antibodies. Results were then analyzed with FlowJo V10 software (TreeStar Inc., Ashland, OR).
In general terms: In flow cytometry, cells or beads pass a laser one at a time.

`COC(=O)C[C@H](NC(=O)[C@H](C)NC(=O)[C@@H](NC(=O)OCc1ccccc1)C(C)C)C(=O)CF` [Z-VAD-FMK] (Cbz-Val-Ala-Asp(OMe)-CH2F): in the data set with MCL-1, the “effect on MCL-1 degradation by 5-azacytidine” value was “partially ablated”.
Broadly, the EC50 is the concentration at which the effect is half-maximal. Consider `CCc1nc(C(N)=O)c(Nc2ccc(N3CCC(N4CCN(C)CC4)CC3)c(OC)c2)nc1NC1CCOCC1` [Gilteritinib], for which the EC50 in the data set with BaF-FLT3(WT) worked out at 4 nM; in the data set on BaF-FLT3(D835Y), 1.8 nM; in the data set on BaF-FLT3-ITD it was 1.8 nM. Also, in the data set on MOLM-13 xenograft model, the Median survival is 34 days.
With `CC1(C)CCC(CN2CCN(c3ccc(C(=O)NS(=O)(=O)c4ccc(NCC5CCOCC5)c([N+](=O)[O-])c4)c(Oc4cnc5[nH]ccc5c4)c3)CC2)=C(c2ccc(Cl)cc2)C1` [Venetoclax], the EC50 is over 10000 nM in the data set with BaF-FLT3(WT), 4330 nM in the data set with BaF-FLT3(D835Y), over 1000 nM in data set [1] and over 10000 nM in the data set with BaF-FLT3-ITD. In addition, the figures for the Median survival with MOLM-13 xenograft model and with MV4-11 xenograft models were 29 days and 35.5, respectively.
Regarding `COc1ccc(-c2c(-c3ccc(C#N)c(F)c3)nc(N3CCC(N)CC3)n(C)c2=O)cc1F` [CC-90011, 4-[2-(4-amino-piperidin-1-yl)-5-(3-fluoro-4-methoxy-phenyl)-1-methyl-6-oxo-1,6-dihydro-pyrimidin-4-yl]-2-fluoro-benzonitrile], the “cell lines sensitive to CC-90011 (single agent cytotoxicity)” value in the data set with 22 AML cell lines was “Eleven”. The “change in differentiation markers” value in data set [2] (five cell lines: HEL, KG-1, MOLM-13, KG-1a, and NOMO-1) is “no changes in any of these differentiation markers”. Moreover, the “cell lines with increased expression of at least one differentiation marker” value in [2] (number of 22 AML cell lines following CC-90011 treatment) is listed as “Seventeen”.
`CO[C@@H]1[C@H](N(C)C(=O)c2ccccc2)C[C@H]2O[C@]1(C)n1c3ccccc3c3c4c(c5c6ccccc6n2c5c31)C(=O)NC4` [Midostaurin]: the Median survival is listed as 34 days in the data set with MOLM-13 xenograft model and 57 with MV4-11 xenograft models.
